The text below walks through data of patent US6656510B2, “Hyperforin derivatives, use thereof and formulations containing them” (Indena S.p.A., priority 1998, dated 2003).

Data set [1] has as its system escape deficit (antidepressive effect). Kind of data set: escape deficit development test. It counts as in vivo. To be noted: rats, 2 week pre-treatment, escapes out of 30 stimuli. As for the experimental part: In the escape deficit development test, rats are restrained and subjected to mild, short, unavoidable electric shocks for 50 minutes. This is known as the pre-test. 24 hours later, the rats are tested for their ability to avoid the same stimuli on their tails, in a situation where […]. A rat on the average makes 26 escapes out of 30 stimuli (naive controls), whereas a rat subjected to pre-test only makes 1 to 3 escapes (ED controls). […] The compounds of the invention, when administered to rats one hour before their exposure to the unavoidable stress, cause an increase in reactivity to the escape test. This increase in reactivity is enhanced when pre-treatment is effected for 1 to 2 weeks.

The conditions of data set [2]: after only a few weeks; WO 97/13489; cited from earlier work.

As to `CC(=O)OC1=C(CC=C(C)C)C(=O)[C@]2(C(=O)C(C)C)C(=O)[C@]1(CC=C(C)C)C[C@H](CC=C(C)C)[C@@]2(C)CCC=C(C)C` [Hyperforin acetate], the “Number of Escapes” value is 12.6 ± 2.8 in data set [1] (6.25 mg/Kg), 17.3 ± 1.9 in data set [1] (12.5 mg/Kg) and 21.2 ± 1.3 in data set [1] (25.0 mg/Kg).
On to `CC(C)=CCC[C@]1(C)[C@@H](CC=C(C)C)C[C@@]2(CC=C(C)C)C(=O)[C@]1(C(=O)C(C)C)C(=O)C(CC=C(C)C)=C2O` [hyperforin], for which the “hyperforin content of a water-alcohol extract of St. Johns wort” value in data set [2] was “falls almost to zero”.
